pIC50: −log10 of the molar value. The source made the active and inactive calls. The calls are words filed in the database; no cut-off is given here.
Tests used:
[1] = AUC (0-24hrs) in BALB/c mouse at 10 mg/kg,po measured upto 24 hrs by LC-MS/MS analysis; type: ADME, organism-based; parameters: dose 10 mg/kg, time < 24 hrs, route po; details: in vivo
[2] = molecular target: Mitogen-activated protein kinase 8 (Homo sapiens, UniProt P45983); assay: Inhibition of JNK1 (unknown origin)
Cytochrome P450 3A4 = Cytochrome P450 3A4 (Homo sapiens, UniProt P08684); assay: Inhibition of CYP3A4 in human liver microsomes using testosterone as substrate in presence of NADPH by HPLC analysis; type: ADME, Microsome
BXPC-3 [3] = assay: Inhibition of colony formation in human BXPC-3 cells at 3 to 10 nM incubated for 5 to 7 days by crystal violet staining assay; type: functional, cell-based; details: dose 3-10 nM, time 5-7 day, DDE = dose-dependent effect
BXPC-3 [4] = assay: Inhibition of mitochondrial respiration in human BXPC-3 cells assessed as reduction in oxygen consumption rate at 1 to 30 nM incubated for 1 hr by seahorse XF96 flux analyzer; type: functional, cell-based; details: dose 1-30 nM, DDE = dose-dependent effect
[5] = molecular target: Signal transducer and activator of transcription 3 (Homo sapiens, UniProt P40763); assay: Inhibition of STAT3 in human BXPC-3 cells assessed as inhibition of IL-6 stimulated cytoplasmic STAT3 phosphorylation at Tyr 705 at 1 to 30 nM by western blot assay; type: cell-based; details: dose 1-30 nM
[6] = molecular target: Mitogen-activated protein kinase 3 (Homo sapiens, UniProt P27361); assay: Inhibition of ERK1 (unknown origin)
Sequence of Mitogen-activated protein kinase 3 (P27361 whole entry): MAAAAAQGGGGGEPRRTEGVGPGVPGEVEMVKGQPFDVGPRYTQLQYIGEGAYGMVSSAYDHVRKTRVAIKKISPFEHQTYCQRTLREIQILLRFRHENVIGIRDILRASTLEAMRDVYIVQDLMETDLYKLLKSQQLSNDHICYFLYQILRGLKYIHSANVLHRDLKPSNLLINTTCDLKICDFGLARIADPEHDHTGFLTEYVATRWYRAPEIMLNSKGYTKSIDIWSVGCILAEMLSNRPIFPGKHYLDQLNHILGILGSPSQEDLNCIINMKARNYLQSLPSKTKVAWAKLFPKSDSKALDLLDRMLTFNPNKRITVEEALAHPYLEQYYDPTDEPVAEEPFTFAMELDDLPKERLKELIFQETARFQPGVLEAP

Sequence of Cytochrome P450 3A4 (P08684 whole entry): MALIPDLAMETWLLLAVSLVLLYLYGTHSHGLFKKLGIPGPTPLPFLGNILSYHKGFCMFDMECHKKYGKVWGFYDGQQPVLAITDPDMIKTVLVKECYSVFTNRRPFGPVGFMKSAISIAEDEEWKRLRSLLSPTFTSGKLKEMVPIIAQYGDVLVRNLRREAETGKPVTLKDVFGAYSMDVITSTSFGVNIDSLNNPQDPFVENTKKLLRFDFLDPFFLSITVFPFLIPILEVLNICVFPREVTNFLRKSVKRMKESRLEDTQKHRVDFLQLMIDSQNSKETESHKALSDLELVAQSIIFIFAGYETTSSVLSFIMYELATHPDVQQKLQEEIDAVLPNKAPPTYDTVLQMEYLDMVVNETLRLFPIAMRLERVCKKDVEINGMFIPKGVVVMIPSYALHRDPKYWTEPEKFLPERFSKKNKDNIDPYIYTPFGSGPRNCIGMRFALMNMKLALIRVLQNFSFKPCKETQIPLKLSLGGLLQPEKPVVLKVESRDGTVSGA
Sequence of Signal transducer and activator of transcription 3 (P40763 whole entry): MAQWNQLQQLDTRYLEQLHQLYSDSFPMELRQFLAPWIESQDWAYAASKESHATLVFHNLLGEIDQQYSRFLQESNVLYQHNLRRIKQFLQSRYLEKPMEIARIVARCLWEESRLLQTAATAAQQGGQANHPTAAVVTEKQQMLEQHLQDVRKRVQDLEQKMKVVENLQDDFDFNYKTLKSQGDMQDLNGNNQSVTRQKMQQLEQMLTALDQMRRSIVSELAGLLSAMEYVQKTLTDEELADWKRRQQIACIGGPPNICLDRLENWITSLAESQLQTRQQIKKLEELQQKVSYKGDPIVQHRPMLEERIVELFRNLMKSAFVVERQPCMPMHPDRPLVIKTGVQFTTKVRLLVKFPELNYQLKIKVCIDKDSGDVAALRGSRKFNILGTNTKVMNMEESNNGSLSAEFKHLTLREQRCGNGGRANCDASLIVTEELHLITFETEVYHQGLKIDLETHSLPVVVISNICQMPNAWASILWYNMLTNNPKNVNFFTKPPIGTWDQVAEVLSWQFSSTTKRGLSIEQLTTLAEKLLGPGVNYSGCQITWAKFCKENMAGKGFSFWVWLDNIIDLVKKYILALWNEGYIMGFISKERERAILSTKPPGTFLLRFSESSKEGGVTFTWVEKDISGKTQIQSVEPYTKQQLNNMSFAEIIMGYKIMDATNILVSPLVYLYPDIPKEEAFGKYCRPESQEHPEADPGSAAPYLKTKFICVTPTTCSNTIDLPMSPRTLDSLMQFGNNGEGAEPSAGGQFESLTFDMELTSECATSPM
Sequence of Mitogen-activated protein kinase 8 (P45983 whole entry): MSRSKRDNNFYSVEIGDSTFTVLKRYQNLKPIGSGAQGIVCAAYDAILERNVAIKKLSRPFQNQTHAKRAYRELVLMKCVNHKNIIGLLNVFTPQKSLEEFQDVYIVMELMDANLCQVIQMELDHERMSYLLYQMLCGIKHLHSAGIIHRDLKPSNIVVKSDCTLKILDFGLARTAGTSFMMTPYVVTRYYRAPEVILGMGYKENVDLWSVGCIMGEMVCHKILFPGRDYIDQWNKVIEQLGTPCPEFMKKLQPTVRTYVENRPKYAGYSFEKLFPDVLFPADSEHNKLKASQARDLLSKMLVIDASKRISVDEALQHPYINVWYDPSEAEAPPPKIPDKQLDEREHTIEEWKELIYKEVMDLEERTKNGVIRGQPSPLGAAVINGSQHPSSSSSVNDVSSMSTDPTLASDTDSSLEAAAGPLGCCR

COc1ccc(-c2noc(-c3cnc(Oc4ccc5cc(C(=O)N6CCN(Cc7ccc(OCC(F)(F)F)cc7)CC6)n(C)c5c4)cn3)n2)cc1
AUC(0-t) at 24 h [1]: 27600 ng·h/mL
pIC50 [2]: < 5.00
pIC50 (Cytochrome P450 3A4): < 4.30
inhibition (BXPC-3 [3]): Dde
inhibition (BXPC-3 [4]): Dde
inhibition [5]: Active
pIC50 [6]: < 5.00

Reference: ChEMBL document CHEMBL5096221, “Discovery of a Highly Potent and Orally Bioavailable STAT3 Dual Phosphorylation Inhibitor for Pancreatic Cancer Treatment” (J Med Chem, 2022)
